From patent publication US6458781B1, “Substituted diarylalkyl amides as calcium channel antagonists” (priority 1998, dated 2002)
Counter-ions that a name gives are not always drawn.

Key:
[1] = biological target: T1, N-type calcium channels in IMR-32 cells (Homo sapiens, UniProt Q00975); assay: N-type Ca2+ channel blocking potency in IMR-32 cells using Indo-1; type: cell-based; settings: IMR-32 cells, 5 μM nitrendipine present; read-out: IMR32 IC50
T1 construct: host or cells: IMR-32 cells differentiated with dibutyryl cAMP and bromodeoxyuridine
T1 sequence (Q00975 whole entry): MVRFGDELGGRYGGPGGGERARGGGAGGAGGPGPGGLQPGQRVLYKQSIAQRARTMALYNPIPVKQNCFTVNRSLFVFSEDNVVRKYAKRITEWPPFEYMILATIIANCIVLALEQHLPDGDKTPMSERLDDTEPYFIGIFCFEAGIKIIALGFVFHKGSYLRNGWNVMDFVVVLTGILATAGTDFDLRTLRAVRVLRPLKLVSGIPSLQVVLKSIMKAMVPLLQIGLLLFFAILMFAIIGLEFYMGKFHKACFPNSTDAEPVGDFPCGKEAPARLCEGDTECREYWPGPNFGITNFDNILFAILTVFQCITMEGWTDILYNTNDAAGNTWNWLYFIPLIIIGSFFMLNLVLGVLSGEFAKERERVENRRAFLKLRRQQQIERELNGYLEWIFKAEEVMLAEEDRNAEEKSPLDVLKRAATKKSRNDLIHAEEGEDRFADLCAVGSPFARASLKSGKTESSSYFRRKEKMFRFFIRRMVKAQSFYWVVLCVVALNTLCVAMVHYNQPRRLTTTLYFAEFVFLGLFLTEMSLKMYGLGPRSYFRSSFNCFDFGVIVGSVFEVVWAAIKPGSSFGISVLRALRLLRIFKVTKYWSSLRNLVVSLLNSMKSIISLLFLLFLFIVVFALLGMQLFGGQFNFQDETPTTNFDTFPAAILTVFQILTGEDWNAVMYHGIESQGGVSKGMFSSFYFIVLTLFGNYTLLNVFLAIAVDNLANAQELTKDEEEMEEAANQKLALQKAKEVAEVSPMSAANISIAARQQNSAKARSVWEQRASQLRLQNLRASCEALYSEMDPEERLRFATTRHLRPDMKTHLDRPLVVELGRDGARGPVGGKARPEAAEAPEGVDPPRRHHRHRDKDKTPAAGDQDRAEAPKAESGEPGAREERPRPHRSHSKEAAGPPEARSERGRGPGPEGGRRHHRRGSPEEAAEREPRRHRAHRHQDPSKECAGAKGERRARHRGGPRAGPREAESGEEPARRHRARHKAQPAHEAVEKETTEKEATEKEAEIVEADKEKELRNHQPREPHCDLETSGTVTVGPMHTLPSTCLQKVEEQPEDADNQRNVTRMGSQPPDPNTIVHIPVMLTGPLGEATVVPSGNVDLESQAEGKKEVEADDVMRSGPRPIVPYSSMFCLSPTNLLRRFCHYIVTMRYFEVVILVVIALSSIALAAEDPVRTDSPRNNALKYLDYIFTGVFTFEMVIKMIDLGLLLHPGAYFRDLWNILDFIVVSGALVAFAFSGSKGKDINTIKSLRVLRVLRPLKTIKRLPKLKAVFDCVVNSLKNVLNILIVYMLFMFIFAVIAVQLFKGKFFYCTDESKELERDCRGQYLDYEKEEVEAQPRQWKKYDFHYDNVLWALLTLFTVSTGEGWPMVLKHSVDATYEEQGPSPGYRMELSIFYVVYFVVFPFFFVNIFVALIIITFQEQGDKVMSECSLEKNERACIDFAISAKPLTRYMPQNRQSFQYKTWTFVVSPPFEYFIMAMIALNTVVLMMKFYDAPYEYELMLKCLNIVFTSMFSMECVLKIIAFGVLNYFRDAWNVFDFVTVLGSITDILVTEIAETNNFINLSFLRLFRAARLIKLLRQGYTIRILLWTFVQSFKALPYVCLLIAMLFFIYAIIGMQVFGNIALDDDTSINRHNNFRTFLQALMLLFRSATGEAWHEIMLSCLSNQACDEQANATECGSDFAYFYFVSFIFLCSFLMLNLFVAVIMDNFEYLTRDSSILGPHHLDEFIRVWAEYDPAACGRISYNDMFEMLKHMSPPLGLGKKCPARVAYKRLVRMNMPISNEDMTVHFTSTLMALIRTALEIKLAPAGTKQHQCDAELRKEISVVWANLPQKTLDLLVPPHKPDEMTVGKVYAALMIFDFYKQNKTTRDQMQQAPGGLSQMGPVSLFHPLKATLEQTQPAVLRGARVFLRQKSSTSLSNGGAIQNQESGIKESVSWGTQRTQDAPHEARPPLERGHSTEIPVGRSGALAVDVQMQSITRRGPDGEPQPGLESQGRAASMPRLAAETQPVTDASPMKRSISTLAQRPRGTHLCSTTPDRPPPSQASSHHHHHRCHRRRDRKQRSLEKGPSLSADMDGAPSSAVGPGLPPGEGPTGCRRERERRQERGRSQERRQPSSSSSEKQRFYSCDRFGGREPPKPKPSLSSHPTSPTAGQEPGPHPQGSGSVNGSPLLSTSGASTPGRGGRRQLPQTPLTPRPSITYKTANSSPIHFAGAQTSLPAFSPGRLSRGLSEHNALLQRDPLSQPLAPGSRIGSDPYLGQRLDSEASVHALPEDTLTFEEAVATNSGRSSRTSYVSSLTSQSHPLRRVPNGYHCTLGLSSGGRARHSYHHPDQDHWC
T1 sequence (P54289 25-956 partner limits assumed): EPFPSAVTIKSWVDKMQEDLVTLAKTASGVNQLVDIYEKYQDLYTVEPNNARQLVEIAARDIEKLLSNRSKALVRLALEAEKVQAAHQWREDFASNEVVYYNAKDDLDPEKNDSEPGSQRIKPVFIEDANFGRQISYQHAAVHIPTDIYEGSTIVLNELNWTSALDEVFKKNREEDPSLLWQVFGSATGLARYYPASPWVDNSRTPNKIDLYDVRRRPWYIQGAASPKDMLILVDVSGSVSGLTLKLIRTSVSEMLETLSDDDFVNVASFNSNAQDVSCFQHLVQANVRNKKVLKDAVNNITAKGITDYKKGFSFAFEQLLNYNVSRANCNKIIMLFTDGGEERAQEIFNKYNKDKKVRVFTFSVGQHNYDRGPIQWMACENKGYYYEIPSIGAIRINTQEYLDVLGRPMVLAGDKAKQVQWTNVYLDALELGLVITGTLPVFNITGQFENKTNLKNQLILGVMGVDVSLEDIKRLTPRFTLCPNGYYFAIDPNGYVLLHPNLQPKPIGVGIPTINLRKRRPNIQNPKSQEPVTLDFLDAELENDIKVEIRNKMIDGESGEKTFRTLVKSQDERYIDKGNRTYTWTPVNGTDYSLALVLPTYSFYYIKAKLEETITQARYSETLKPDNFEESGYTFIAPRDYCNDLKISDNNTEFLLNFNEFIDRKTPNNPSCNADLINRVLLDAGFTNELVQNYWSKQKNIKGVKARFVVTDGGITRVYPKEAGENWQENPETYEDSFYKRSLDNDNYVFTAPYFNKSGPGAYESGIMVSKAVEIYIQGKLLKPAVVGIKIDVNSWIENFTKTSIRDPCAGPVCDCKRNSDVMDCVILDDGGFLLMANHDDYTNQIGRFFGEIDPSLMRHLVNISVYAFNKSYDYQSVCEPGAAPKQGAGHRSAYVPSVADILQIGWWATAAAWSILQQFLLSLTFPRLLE
T1 sequence (P54289 957-1103 partner limits assumed): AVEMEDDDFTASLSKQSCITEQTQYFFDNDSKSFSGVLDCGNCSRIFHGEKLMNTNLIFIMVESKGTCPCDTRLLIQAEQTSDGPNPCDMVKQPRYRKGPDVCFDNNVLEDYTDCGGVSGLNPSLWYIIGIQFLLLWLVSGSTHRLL
T1 sequence (Q02641 whole entry partner): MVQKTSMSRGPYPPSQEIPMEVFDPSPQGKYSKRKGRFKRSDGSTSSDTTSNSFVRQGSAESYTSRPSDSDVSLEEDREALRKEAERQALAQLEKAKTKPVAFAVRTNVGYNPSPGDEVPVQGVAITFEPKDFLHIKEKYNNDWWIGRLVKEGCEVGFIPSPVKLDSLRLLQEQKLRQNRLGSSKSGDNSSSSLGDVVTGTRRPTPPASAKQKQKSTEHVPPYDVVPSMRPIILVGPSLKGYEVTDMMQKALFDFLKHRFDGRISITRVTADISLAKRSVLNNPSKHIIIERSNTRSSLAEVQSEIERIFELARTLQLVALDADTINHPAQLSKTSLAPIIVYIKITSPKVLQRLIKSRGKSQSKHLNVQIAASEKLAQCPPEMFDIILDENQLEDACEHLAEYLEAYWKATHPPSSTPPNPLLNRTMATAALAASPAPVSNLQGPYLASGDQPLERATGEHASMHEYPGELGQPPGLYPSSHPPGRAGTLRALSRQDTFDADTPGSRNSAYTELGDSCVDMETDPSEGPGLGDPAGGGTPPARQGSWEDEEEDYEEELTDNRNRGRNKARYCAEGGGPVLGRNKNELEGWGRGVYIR
Description: Measurement of N-type Ca^2+ Channel Blocking Potencies of Compounds in IMR-32 Cells Using the Fluorescent Ca^2+ Indicator Indo-1
IMR-32 cells are a human tumoral cell line of neural origin. […] Calcium flux into these cells may be induced by stimulation with elevated potassium concentrations. The L-channel component of calcium flux may be blocked by adding 5 μM nitrendipine. The remaining component of calcium entry into the IMR-32 cells is due to calcium flux through N-type calcium channels. Intracellular calcium concentrations are measured using the fluorescent calcium indicator Indo-1. The effect of drug concentration on calcium uptake is studied.
The IMR-32 cell line was obtained from the American Type Culture Collection (Rockville, Md.). Cells were grown in Eagle's Minimum Essential Medium with Earle's salts supplemented with 10% fetal bovine serum, 2 mM L-Gln and antibiotic/antimycotic mixture (Gibco). At approximately 80% confluency, differentiation was induced by the addition of 1 mM dibutyryl cAMP and 2.5 μM bromodeoxyuridine to the medium. After 7 to 13 days of differentiation, cells were detached using 0.5 mM EDTA and loaded with 5 μM Indo-1 acetoxymethyl ester (Molecular Probes, Eugene, Oreg.) at 30° C. for 45 minutes. Loaded cells were washed twice, resuspended (˜10^7 cells/mL) in assay buffer (10 mM HEPES/Tris pH 7.4 in Hank's Balanced Salt Solution without bicarbonate or phenol red containing 0.5% bovine serum albumin) and kept on ice until use. Fluorescence measurements were carried out in a Photon Technology International (PTI, South Brunswick, N.J.) Model RF-F3004 spectrofluorometer with dual emission monochromators using excitation at 350 nm and emission at 400 and 490 nm. The instrument was equipped with a thermostated cuvette holder with stirring capabilities as well as with a computer-controlled pump which allowed for reagent addition during measurement. Instrument control and data collection was done by PTI's OSCAR software running on an IBM compatible computer. Different concentrations of the test compounds (60 μL in dimethyl sulfoxide) were added to 5.94 mL of assay buffer containing approximately 3×10^6 loaded cells, and 5 μM Nitrendipine (in 30 μL EtOH) to block L-type Ca^2+ channels. Samples were incubated for 10 minutes at 30° C. and the aliquot into three 10×10 mm disposable acrylic cuvettes. Emission signals at 400 and 490 nm were acquired from each cuvette at 30° C. for 50 seconds. At 20 seconds after the start of reading, cells were depolarized by the addition of 160 μL of stimulation solution (1 M KCl, 68 mM CaCl2) to the cuvette via the computer-controlled pump. Ratio of dual emission signals (400/490 nm), which is proportional to intracellular Ca^2+ concentration, was plotted against time, and the difference between maximal response after stimulation and basal value (before stimulation) was determined. Values obtained in this way were plotted as a function of drug concentration. IC50 values of test compounds were calculated by fitting a four-parameter logistic function to the data using the least squares method.

Row | melting point | IC50 [1] | Structure (SMILES)
1 | 100 to 103 °C | – | CC(C)C[C@H](NC(C)C)C(=O)NCCCC(c1ccc(F)cc1)c1ccc(F)cc1 (as salt: hydrochloride) [Example 19, (S)-2-Isopropylamino-4-methyl-pentanoic acid [4,4-bis-(4-fluoro-phenyl)-butyl]-amide monohydrochloride]
2 | 60 to 72 °C | – | CC(C)C[C@@H](C(=O)NCCCC(c1ccc(F)cc1)c1ccc(F)cc1)N(C)C (as salt: hydrochloride) [Example 20, (S)-2-Dimethylamino-4-methyl-pentanoic acid [4,4-bis-(4-fluoro-phenyl)-butyl]-amide monohydrochloride]
3 | 73 to 83 °C | – | CC(C)C[C@@H](C(=O)NCCCC(c1ccc(F)cc1)c1ccc(F)cc1)N(C)C1CCCCC1 (as salt: hydrochloride) [Example 21, (S)-2-(Cyclohexyl-methyl-amino)-4-methyl-pentanoic acid [4,4-bis-(4-fluoro-phenyl)-butyl]-amide monohydrochloride]
4 | 63 to 78 °C | – | CC(C)C[C@@H](C(=O)NCCCC(c1ccc(F)cc1)c1ccc(F)cc1)N1CCOCC1 (as salt: hydrochloride) [Example 23, (S)-4-Methyl-2-morpholin-4-yl-pentanoic acid [4,4-bis-(4-fluoro-phenyl)-butyl]-amide monohydrochloride]
5 | 75 to 92 °C | – | CC(C)C[C@@H](C(=O)NCCCC(c1ccc(F)cc1)c1ccc(F)cc1)N(C)C1CCOCC1 (as salt: hydrochloride) [Example 27, (S)-4-Methyl-2-[methyl-(tetrahydro-pyran-4-yl)-amino]-pentanoic acid [4,4-bis-(4-fluoro-phenyl)-butyl]-amide monohydrochloride]
6 | 72 to 80 °C | – | CC(C)N[C@H](C(=O)NCCCC(c1ccc(F)cc1)c1ccc(F)cc1)C(C)C (as salt: hydrochloride) [Example 65, (S)-N-[4,4-Bis-(4-fluoro-phenyl)-butyl]-2-isopropylamino-3-methyl-butyramide]
7 | 77 to 81 °C | – | CCC(C)N[C@H](C(=O)NCCCC(c1ccc(F)cc1)c1ccc(F)cc1)C(C)C (stereo partly drawn) (as salt: hydrochloride) [Example 66, (S)-N-[4,4-Bis-(4-fluoro-phenyl)-butyl]-2-sec-butylamino-3-methyl-butyramide]
8 | 155 to 156 °C | – | CC(C)C[C@@H](C(=O)NCCCC(c1ccc(F)cc1)c1ccc(F)cc1)N(C)C(C)C (as salt: hydrochloride) [Example 68, (S)-2-(Isopropyl-methyl-amino)-4-methyl-pentanoic acid [4,4-bis-(4-fluoro-phenyl)-butyl]-amide]
9 | 49 to 53 °C | – | CC(C)[C@H](NC1CCCCC1)C(=O)NCCCC(c1ccc(F)cc1)c1ccc(F)cc1 (as salt: hydrochloride) [Example 70, (S)-N-[4,4-Bis-(4-fluoro-phenyl)-butyl]-2-cyclohexylamino-3-methyl-butyramide]

Continued, compound first:

Row | Structure (SMILES) | melting point | IC50 [1]
10 | CC(C)=CCN(C)[C@@H](CC(C)C)C(=O)NCCCC(c1ccc(F)cc1)c1ccc(F)cc1 (as salt: hydrochloride) [Example 13, (S)-4-Methyl-2-[methyl-(3-methyl-but-2-enyl)-amino]-pentanoic acid [4,4-bis-(4-fluoro-phenyl)-butyl]-amide monohydrochloride] | 55 to 68 °C | –
11 | CC(C)C[C@@H](C(=O)NCCC(c1ccccc1)c1ccccc1)N(C)C1CCCCC1 (as salt: hydrochloride) [Example 25, (S)-2-(Cyclohexyl-methyl-amino)-4-methyl-pentanoic acid (3,3-diphenyl-propyl)-amide monohydrochloride] | 67 to 86 °C | –
12 | CC(C)C[C@H](NC(C)C)C(=O)N1CCN(C(c2ccc(F)cc2)c2ccc(F)cc2)CC1 (as salt: hydrochloride) [Example 49, (S)-1-{4-[Bis-(4-fluoro-phenyl)-methyl]-piperazin-1-yl}-2-isopropylamino-4-methyl-pentan-1-one monohydrochloride] | 100 to 103 °C | –
13 | CC(C)[C@@H](C(=O)NCCCC(c1ccc(F)cc1)c1ccc(F)cc1)N(C)C1CCCCC1 (as salt: hydrochloride) [Example 69, (S)-N-[4,4-Bis-(4-fluoro-phenyl)-butyl]-2-(cyclohexyl-methyl-amino)-3-methyl-butyramide] | 82 to 86 °C | –
14 | CN[C@H](C(=O)NCCCC(c1ccc(F)cc1)c1ccc(F)cc1)C(C)C (as salt: hydrochloride) [Example 73, (S)-3-Methyl-2-methylamino-butanoic acid [4,4-bis-(4-fluorophenyl)-butyl]-amide monohydrochloride] | 85 to 90 °C | –
15 | CC(C)C[C@H](NC(=O)N1CCCCCC1)C(=O)NCC(c1ccccc1)c1ccccc1 [Example 4, (S)-Azepane-1-carboxylic acid [1-(2,2-diphenyl-ethylcarbamoyl)-3-methyl-butyl]-amide] | 194 to 195 °C | 3.3 µM
16 | CC(C)C[C@H](NC(=O)N1CCCCCC1)C(=O)NCCC(c1ccccc1)c1ccccc1 [Example 5, (S)-Azepane-1-carboxylic acid [1-(3,3-diphenyl-propylcarbamoyl)-3-methyl-butyl]-amide] | 144 to 145 °C | 1.8 µM
17 | CC(C)C[C@H](NC(=O)OC(C)(C)C)C(=O)NCCCC(c1ccc(F)cc1)c1ccc(F)cc1 [Example 6, (S)-{1-[4,4-Bis-(4-fluoro-phenyl)-butylcarbamoyl]-3-methyl-butyl}-carbamic acid tert-butyl ester] | 50 to 55 °C | 1.3 µM
18 | CC(C)C[C@H](NC(=O)N1CCCCCC1)C(=O)NCCCC1(c2ccccc2)C(=O)N(C)c2ccccc21 (stereo partly drawn) [Example 10, (S)-Azepane-1-carboxylic acid {3-methyl-1-[3-(1-methyl-2-oxo-3-phenyl-2,3-dihydro-1H-indol-3-yl)-propylcarbamoyl]-butyl}-amide] | 181 to 182 °C | 2.6 µM
19 | CC(C)C[C@H](NC(=O)N1CCCCCC1)C(=O)NCc1nn(-c2ccccc2)c2ccccc12 [Example 11, (S)-Azepane-1-carboxylic acid {3-methyl-1-[(1-phenyl-1H-indazol-3-ylmethyl)-carbamoyl]-butyl}-amide] | 135 to 136 °C | 4 µM
